Experimental data as given in US10759787B2, “Benzofuran derivative, preparation method thereof and use thereof in medicine” (Jiangsu Hengrui Medicine Co., Ltd., priority 2015, dated 2020).

What was measured:
EZH2-A677G = EZH2-A677G (Homo sapiens (Human), UniProt Q15910, A677G); assay: EZH2-A677G mutant enzyme activity assay (HTRF); assay type: biochemical; settings: read-out: IC50 for inhibiting the activity of enzyme EZH2-A677G
Method: (§1) Histone H3 biotin labeling and S-adenosyl methionine were respectively diluted to 50 nM and 50 μM with a kinase buffer, then added to a 384-well plate at 4 μl/well. The test compound was diluted with a kinase buffer (it was diluted from the highest concentration 30 μM in 10 fold concentration gradient to 7 concentration points), then added to the 384-well microtiter plate at 4 μl/well. The plate was incubated at room temperature for 2 hours. Histone H3K27 Me3 monoclonal antibody and Streptavidin-XL665 were diluted to 30 nM and 500 nM by HTRF detection buffer, then added to the 384-well microplate at 10 µl/well and incubated for 1 hour. A well without an EZH2 enzyme and a compound was used as a negative control, and a well with an EZH2 enzyme but without a compound was used as a positive control. […] The compound logarithm concentration vs the inhibition percentage relative to the positive control well was plotted using GraphPad Prism, then the IC50 values were calculated.

Pfeiffer cells = assay: In vitro anti-tumor cell growth assay (CellTiter-Glo), Pfeiffer; assay type: cell-based; settings: Homo sapiens, 120 h; Pfeiffer cells (A677G mutant), 5 days; read-out: IC50 for inhibiting the growth activity of tumor cells (Pfeiffer) in vitro
Method: Test Example 2. Assay for Determining In Vitro Anti-Tumor Cell Growth Activity of the Example Compounds of the Present Invention
This method was used to determinate the inhibitory effect of the compounds of the present invention on the growth activity of tumor cells (Pfeiffer or WSU-DLCL2) in vitro. Pfeiffer cells carry A677G mutant, and WSU-DLCL2 cells carry Y641F mutant.
The lymphoma suspension cell line (Pfeiffer or WSU-DLCL2) was cultured in a RPMI-1640 medium containing 10% inactivated Fetal Bovine Serum, 100 U/mL penicillin, and 100 μg/mL streptomycin, and incubated in an incubator with 5% carbon dioxide at 37° C. under a saturated humidity condition, and passaged every 3-4 days.
A cell sudpension was prepared with a fresh cell medium, added to a 96-well cell culture plate at 8000 cells/well (Pfeiffer) or 2000 cells/well (WSU-DLCL2), and incubated in 5% carbon dioxide at 37° C. incubator overnight. On the day of the experiment, the EZH2 test compounds (final concentration: 20000, 2000, 200, 20, 2, 0.2 nM) were added into the experimental wells for 3 parallel wells per group. A control well with the medium alone but without cells was set up to obtain the background luminescent value. The cell culture plate was incubated in an incubator with 5% carbon dioxide at 37° C. for 5 days.
After the compounds were applied to the cells for 5 days, the cell culture plate was placed at room temperature for 30 minutes, then a CellTiter-Glo reagent equal to the volume of cell culture medium was added to each well. The contents were mixed on a shaker for 10 minutes, and the […] signal values were recorded. The cell growth inhibition rate was calculated, and the formula was: cell growth inhibiton rate=[(negative control control−experimental group)/(negative control group−background luminescent value)]×100%. The IC50 values (half inhibition rate IC50, i.e., a drug concentration that is required for 50% cell growth inhibition rate) were calculated by software from the cell growth inhibiton rate and the corresponding concentration.

[1] = Pharmacokinetics assay in SD rats after intragastrical administration; assay type: in vivo; settings: both sexes, Sprague-Dawley, rat, plasma, po, 5 mg/kg; for Vd/F: read-out: Apparent Distribution Volume Vz/F; for AUC: read-out: Area Under Curve AUC; for CL/F: read-out: Clearance CL/F; for half-life: read-out: Half-Life t1/2 (converted); for MRT: read-out: Mean Residence Time MRT; for Cmax: read-out: Plasma Conc. Cmax
Method: Test Example 3. Pharmacokinetics Assay of the Compounds of Examples 1, 2, 3 and 9 of the Present Invention
SD rats were used as test animals. The drug concentration in plasma at different time points was determined by LC/MS/MS after intragastrical administration of the compounds of Examples 1, 2, 3 and 9 to the rats. The pharmacokinetic behavior of the compounds of the present invention was studied and evaluated in rats.
16 healthy adult Sprague-Dawley (SD) rats, half male and half female, were purchased from SINO-BRITSH SIPPR/BK LAB. ANIMAL LTD., CO, with Certificate No.: SCXK (Shanghai) 2008-0016.
The appropriate amount of each compound was weighed, and added with 0.5% CMC-Na (containing 1% Tween 80) to prepare a 1.0 mg/mL suspension by grinding.
After an overnight fast, 16 SD rats were divided into 4 groups equally, half male and half female, and administered intragastrically the test compounds at an administration volume of 5 mL/kg.
Blood (0.2 mL) was taken from the orbital sinus before administration and at 0.5, 1.0, 2.0, 4.0, 6.0, 8.0, 11.0, and 24.0 hours after administration. The samples were stored in heparinized tubes, and centrifuged for 10 minutes at 3,500 rpm to separate the blood plasma. The plasma samples were stored at −20° C.
The plasma concentration of the test compounds in rat plasma after intragastric administration was determined by LC-MS/MS.
Pharmacokinetic parameters of the compounds of Examples 1, 2, 3 and 9 of the present invention are shown below: […]

EZH2-Y641F = EZH2-Y641F (Homo sapiens (Human), UniProt Q15910, Y641F); assay: EZH2-Y641F mutant enzyme activity assay (HTRF); assay type: biochemical; settings: read-out: IC50 for inhibiting the activity of enzyme EZH2-Y641F
EZH2-Y641F, sequence (Q15910 whole entry Y641F): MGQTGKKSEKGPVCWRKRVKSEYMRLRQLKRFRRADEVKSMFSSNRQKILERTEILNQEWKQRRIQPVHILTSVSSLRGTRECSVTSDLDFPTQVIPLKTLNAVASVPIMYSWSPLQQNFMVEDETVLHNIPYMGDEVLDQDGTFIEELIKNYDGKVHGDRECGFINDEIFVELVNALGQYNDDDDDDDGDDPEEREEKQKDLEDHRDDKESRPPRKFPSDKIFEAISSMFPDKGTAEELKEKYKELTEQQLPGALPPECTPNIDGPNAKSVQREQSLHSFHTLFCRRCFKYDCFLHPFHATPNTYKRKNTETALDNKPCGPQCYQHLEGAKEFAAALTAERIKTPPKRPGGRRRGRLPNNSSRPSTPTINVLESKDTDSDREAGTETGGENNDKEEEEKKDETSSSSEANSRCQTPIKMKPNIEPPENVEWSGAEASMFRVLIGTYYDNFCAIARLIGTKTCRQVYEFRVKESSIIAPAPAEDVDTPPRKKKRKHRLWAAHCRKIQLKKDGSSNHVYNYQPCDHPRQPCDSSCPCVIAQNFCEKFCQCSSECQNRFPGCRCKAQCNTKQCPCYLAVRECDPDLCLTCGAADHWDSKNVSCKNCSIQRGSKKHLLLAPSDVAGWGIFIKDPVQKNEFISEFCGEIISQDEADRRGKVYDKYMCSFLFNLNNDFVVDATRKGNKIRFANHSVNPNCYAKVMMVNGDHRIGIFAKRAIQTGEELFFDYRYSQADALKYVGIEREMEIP
EZH2-Y641F, sequence (O75530 whole entry partner): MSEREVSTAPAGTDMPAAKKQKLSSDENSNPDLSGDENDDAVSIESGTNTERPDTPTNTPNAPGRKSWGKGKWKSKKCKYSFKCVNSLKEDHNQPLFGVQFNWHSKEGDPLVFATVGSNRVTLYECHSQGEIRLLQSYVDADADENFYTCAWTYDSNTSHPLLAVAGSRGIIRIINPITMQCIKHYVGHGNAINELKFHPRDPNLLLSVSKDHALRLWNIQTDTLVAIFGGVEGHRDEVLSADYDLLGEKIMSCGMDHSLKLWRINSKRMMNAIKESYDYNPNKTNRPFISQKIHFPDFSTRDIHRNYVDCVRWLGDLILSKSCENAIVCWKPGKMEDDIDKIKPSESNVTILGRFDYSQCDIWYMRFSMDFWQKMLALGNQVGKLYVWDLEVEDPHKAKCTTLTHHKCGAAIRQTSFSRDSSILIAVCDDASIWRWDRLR
EZH2-Y641F, sequence (Q15022 whole entry partner): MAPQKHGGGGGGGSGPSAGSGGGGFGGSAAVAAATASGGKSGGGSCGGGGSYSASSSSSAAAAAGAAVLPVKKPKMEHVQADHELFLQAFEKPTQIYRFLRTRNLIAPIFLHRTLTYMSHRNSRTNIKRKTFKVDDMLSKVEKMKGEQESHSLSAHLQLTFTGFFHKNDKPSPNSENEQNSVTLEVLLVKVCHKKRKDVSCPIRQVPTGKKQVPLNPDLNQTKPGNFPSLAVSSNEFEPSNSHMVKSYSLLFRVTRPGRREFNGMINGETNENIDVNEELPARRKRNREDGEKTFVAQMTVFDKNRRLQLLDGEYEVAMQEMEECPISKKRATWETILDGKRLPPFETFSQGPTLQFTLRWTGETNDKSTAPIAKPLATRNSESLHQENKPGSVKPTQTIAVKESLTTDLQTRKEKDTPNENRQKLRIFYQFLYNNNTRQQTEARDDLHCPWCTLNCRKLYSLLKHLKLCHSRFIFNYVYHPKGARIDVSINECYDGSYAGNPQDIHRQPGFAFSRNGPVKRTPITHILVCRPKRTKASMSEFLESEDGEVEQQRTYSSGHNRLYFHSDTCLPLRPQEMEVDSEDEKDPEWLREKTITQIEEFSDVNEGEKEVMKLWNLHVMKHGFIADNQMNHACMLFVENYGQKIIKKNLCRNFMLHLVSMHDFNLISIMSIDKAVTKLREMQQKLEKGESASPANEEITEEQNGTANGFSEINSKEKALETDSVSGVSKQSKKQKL
EZH2-Y641F, sequence (Q09028 whole entry partner): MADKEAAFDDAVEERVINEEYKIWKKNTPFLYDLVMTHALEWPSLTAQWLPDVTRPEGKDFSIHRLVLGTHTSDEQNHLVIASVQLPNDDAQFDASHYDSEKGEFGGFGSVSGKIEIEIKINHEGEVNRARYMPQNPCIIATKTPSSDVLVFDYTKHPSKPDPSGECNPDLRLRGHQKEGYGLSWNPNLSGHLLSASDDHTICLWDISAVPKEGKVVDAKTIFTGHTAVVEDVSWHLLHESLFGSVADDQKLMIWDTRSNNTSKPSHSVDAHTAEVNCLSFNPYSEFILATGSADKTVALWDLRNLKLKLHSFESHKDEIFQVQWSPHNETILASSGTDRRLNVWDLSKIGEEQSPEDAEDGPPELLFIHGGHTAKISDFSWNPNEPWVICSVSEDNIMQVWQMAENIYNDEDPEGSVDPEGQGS
EZH2-Y641F, sequence (Q6ZN18 whole entry partner): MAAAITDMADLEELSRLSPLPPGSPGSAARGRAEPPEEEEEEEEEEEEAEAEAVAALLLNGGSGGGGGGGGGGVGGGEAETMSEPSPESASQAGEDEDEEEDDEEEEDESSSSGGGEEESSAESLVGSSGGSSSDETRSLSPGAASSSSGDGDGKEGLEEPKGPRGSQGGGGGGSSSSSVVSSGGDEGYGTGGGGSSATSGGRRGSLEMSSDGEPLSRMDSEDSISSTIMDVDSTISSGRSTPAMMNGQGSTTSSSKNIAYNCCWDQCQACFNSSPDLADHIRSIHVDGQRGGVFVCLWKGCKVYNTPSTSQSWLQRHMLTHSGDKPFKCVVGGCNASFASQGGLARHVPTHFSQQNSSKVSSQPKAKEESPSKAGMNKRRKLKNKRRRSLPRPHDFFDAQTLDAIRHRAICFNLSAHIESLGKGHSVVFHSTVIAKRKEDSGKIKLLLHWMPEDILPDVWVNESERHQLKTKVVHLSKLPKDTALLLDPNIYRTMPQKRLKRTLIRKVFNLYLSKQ
Method: as §1

EZH2-A677G, sequence (Q15910 whole entry A677G): as the sequence (Q15910 whole entry Y641F) above, with F641Y, A677G counted along it
EZH2-A677G, sequence (O75530 whole entry partner): as the sequence (O75530 whole entry partner) above
EZH2-A677G, sequence (Q15022 whole entry partner): as the sequence (Q15022 whole entry partner) above
EZH2-A677G, sequence (Q09028 whole entry partner): as the sequence (Q09028 whole entry partner) above
EZH2-A677G, sequence (Q6ZN18 whole entry partner): as the sequence (Q6ZN18 whole entry partner) above

| SMILES | IC50 (EZH2-A677G) | IC50 (Pfeiffer cells) | further results |
| --- | --- | --- | --- |
| CCc1c(N(CC)C2CCOCC2)cc2oc(CN3CCCCC3)cc2c1C(=O)NCc1c(OC)cc(C)[nH]c1=O [Example 1, 5-Ethyl-6-(ethyl(tetrahydro-2H-pyran-4-yl)amino)-N-((4-methoxy-6-methyl-2-oxo-1,2-dihydropyridin-3-yl)methyl)-2-(piperidin-1-ylmethyl)benzofuran-4-carboxamide] | 6.4 nM | 2 nM | Vd/F [1]: 28.1 ± 18.4 L/kg; AUC [1]: 0.246 ± 0.127 µg·h/mL; CL/F [1]: 23.4 ± 12.1 L/h/kg; half-life [1]: 0.8 ± 0.13 h; MRT [1]: 2.37 ± 0.18 h; Cmax [1]: 0.0889 ± 0.0771 µg/mL |
| CCc1cc(C)[nH]c(=O)c1CNC(=O)c1c(CC)c(N(CC)C2CCOCC2)cc2oc(CN3CCCCC3)cc12 [Example 3, 5-Ethyl-6-(ethyl(tetrahydro-2H-pyran-4-yl)amino)-N-((4-ethyl-6-methyl-2-oxo-1,2-dihydropyridin-3-yl)methyl)-2-(piperidin-1-ylmethyl)benzofuran-4-carboxamide] | 38 nM | 4 nM | Vd/F [1]: 40.5 ± 7.97 L/kg; AUC [1]: 0.487 ± 0.012 µg·h/mL; CL/F [1]: 10.3 ± 0.264 L/h/kg; half-life [1]: 2.73 ± 0.53 h; MRT [1]: 4.65 ± 0.184 h; Cmax [1]: 0.0915 ± 0.0056 µg/mL |
| CCc1c(N(CC)C2CCOCC2)cc2oc(CN3CCN(C)CC3)cc2c1C(=O)NCc1c(OC)cc(C)[nH]c1=O [Example 12, 5-Ethyl-6-(ethyl(tetrahydro-2H-pyran-4-yl)amino)-N-((4-methoxy-6-methyl-2-oxo-1,2-dihydropyridin-3-yl)methyl)-2-((4-methylpiperazin-1-yl)methyl)benzofuran-4-carboxamide] | 10 nM | 22 nM |  |
| CCc1c(N(CC)C2CCOCC2)cc2oc(CN(C)C)cc2c1C(=O)NCc1c(OC)cc(C)[nH]c1=O [Example 13, 2-((Dimethylamino)methyl)-5-ethyl-6-(ethyl(tetrahydro-2H-pyran-4-yl)amino)-N-((4-methoxy-6-methyl-2-oxo-1,2-dihydropyridin-3-yl)methyl)benzofuran-4-carboxamide] | 2.9 nM | 9 nM |  |
| CCN(c1cc2oc(C3CCN(C)CC3)cc2c(C(=O)NCc2c(C)cc(C)[nH]c2=O)c1C)C1CCOCC1 [Example 15, N-((4,6-Dimethyl-2-oxo-1,2-dihydropyridin-3-yl)methyl)-6-(ethyl(tetrahydro-2H-pyran-4-yl)amino)-5-methyl-2-(1-methylpiperidin-4-yl)benzofuran-4-carboxamide] | 16 nM | 13 nM |  |
| CCN(c1cc2oc(C3=CCN(C)CC3)cc2c(C(=O)NCc2c(C)cc(C)[nH]c2=O)c1C)C1CCOCC1 [Example 16, N-((4,6-Dimethyl-2-oxo-1,2-dihydropyridin-3-yl)methyl)-6-(ethyl(tetrahydro-2H-pyran-4-yl)amino)-5-methyl-2-(1-methyl-1,2,3,6-tetrahydropyridin-4-yl)benzofuran-4-carboxamide] | 31 nM | 18 nM |  |
| CCc1c(N(CC)C2CCOCC2)cc2oc(C3CCN(C)CC3)cc2c1C(=O)NCc1c(OC)cc(C)[nH]c1=O [Example 17, 5-Ethyl-6-(ethyl(tetrahydro-2H-pyran-4-yl)amino)-N-((4-methoxy-6-methyl-2-oxo-1,2-dihydropyridin-3-yl)methyl)-2-(1-methylpiperidin-4-yl)benzofuran-4-carboxamide] | 9.9 nM | 9 nM |  |
| CCN(c1cc2occ(C)c2c(C(=O)NCc2c(OC)cc(C)[nH]c2=O)c1C)C1CCOCC1 [Example 20, 6-(Ethyl(tetrahydro-2H-pyran-4-yl)amino)-N-((4-methoxy-6-methyl-2-oxo-1,2-dihydropyridin-3-yl)methyl)-3,5-dimethylbenzofuran-4-carboxamide] | 5.9 nM |  | IC50 (EZH2-Y641F): 5.6 nM |
| COc1cc(C)[nH]c(=O)c1CNC(=O)c1c(C)c(N(C)C2CCOCC2)cc2occc12 [Example 23, N-((4-Methoxy-6-methyl-2-oxo-1,2-dihydropyridin-3-yl)methyl)-5-methyl-6-(methyl(tetrahydro-2H-pyran-4-yl)amino)benzofuran-4-carboxamide] | 4.8 nM | 68 nM | IC50 (EZH2-Y641F): 0.3 nM |
| CCN(c1cc2occc2c(C(=O)NCc2c(OC)cc(C)[nH]c2=O)c1C)C1CCN(C(C)=O)CC1 [Example 26, 6-((1-Acetylpiperidin-4-yl)(ethyl)amino)-N-((4-methoxy-6-methyl-2-oxo-1,2-dihydropyridin-3-yl)methyl)-5-methylbenzofuran-4-carboxamide] | 2.9 nM |  | IC50 (EZH2-Y641F): 2.8 nM |
| CCc1c(N(CC)C2CCOCC2)cc2oc(F)cc2c1C(=O)NCc1c(OC)cc(C)[nH]c1=O [Example 27, 5-Ethyl-6-(ethyl(tetrahydro-2H-pyran-4-yl)amino)-2-fluoro-N-((4-methoxy-6-methyl-2-oxo-1,2-dihydropyridin-3-yl)methyl)benzofuran-4-carboxamide] | 3.5 nM | 4 nM |  |
| CCc1c(N(CC2CC2)C2CCOCC2)cc2oc(C3CC3)cc2c1C(=O)NCc1c(OC)cc(C)[nH]c1=O [Example 28, 2-Cyclopropyl-6-((cyclopropylmethyl)(tetrahydro-2H-pyran-4-yl)amino)-5-ethyl-N-((4-methoxy-6-methyl-2-oxo-1,2-dihydropyridin-3-yl)methyl)benzofuran-4-carboxamide] | 6.8 nM | 78 nM |  |
| CCN(c1cc2oc(C(F)(F)F)cc2c(C(=O)NCc2c(OC)cc(C)[nH]c2=O)c1C)C1CCOCC1 [Example 29, 6-(Ethyl(tetrahydro-2H-pyran-4-yl)amino)-N-((4-methoxy-6-methyl-2-oxo-1,2-dihydropyridin-3-yl)methyl)-5-methyl-2-(trifluoromethyl)benzofuran-4-carboxamide] | 2.7 nM | 17 nM |  |
| CCN(c1cc2oc(C#N)cc2c(C(=O)NCc2c(OC)cc(C)[nH]c2=O)c1C)C1CCOCC1 [Example 30, 2-Cyano-6-(ethyl(tetrahydro-2H-pyran-4-yl)amino)-N-((4-methoxy-6-methyl-2-oxo-1,2-dihydropyridin-3-yl)methyl)-5-methylbenzofuran-4-carboxamide] | 0.8 nM | 17 nM |  |
| CCc1c(N(CC)C2CCC(F)(F)CC2)cc2occc2c1C(=O)NCc1c(OC)cc(C)[nH]c1=O [Example 31, 6-((4,4-Difluorocyclohexyl)(ethyl)amino)-5-ethyl-N-((4-methoxy-6-methyl-2-oxo-1,2-dihydropyridin-3-yl)methyl)benzofuran-4-carboxamide] | 2.7 nM | 69 nM | IC50 (EZH2-Y641F): 4.5 nM |
